Data: PubChem BioAssay AID1919006 (Molecular Pharmacology Branch, DTP, NCI, 2023)

Test system: 885512-296-R-J2-PDC complex spheroid growth, % test/control
Test: Anticancer human tumor 885512-296-R-J2-PDC patient-derived breast carcinoma cell line growth inhibition [AhR]
Conditions: for IC50: curve of first compound; for viability, T/C: stronger effect = lower value
Summary of the method: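 Agents were dosed in half-log steps down from roughly clinical Cmax, or from 10 microM where Cmax was unknown, alone and with AhR antagonists. Read-out: percent test/control growth of tumor spheroids containing HUVEC and MSC stromal cells.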

[1] = second compound 0.1 µM, first compound 0.0316 µM
[2] = second compound 0.1 µM, first compound 0.1 µM
[3] = second compound 0.316 µM, first compound 0.0316 µM
[4] = second compound 0.316 µM, first compound 0.1 µM
[5] = second compound 1 µM, first compound 0.0316 µM
[6] = second compound 1 µM, first compound 0.1 µM
[7] = second compound 3.16 µM, first compound 0.0316 µM
[8] = second compound 3.16 µM, first compound 0.1 µM
[9] = second compound 10 µM, first compound 0.0316 µM
[10] = second compound 10 µM, first compound 0.1 µM
[11] = second compound 0.1 µM, first compound 0.316 µM
[12] = second compound 0.1 µM, first compound 1 µM
[13] = second compound 0.1 µM, first compound 3.16 µM
[14] = second compound 0.1 µM, first compound 10 µM
[15] = second compound 0.316 µM, first compound 0.316 µM
[16] = second compound 0.316 µM, first compound 1 µM
[17] = second compound 0.316 µM, first compound 3.16 µM
[18] = second compound 0.316 µM, first compound 10 µM
[19] = second compound 1 µM, first compound 0.316 µM
[20] = second compound 1 µM, first compound 1 µM
[21] = second compound 1 µM, first compound 3.16 µM
[22] = second compound 1 µM, first compound 10 µM
[23] = second compound 3.16 µM, first compound 0.316 µM
[24] = second compound 3.16 µM, first compound 1 µM
[25] = second compound 3.16 µM, first compound 3.16 µM
[26] = second compound 3.16 µM, first compound 10 µM
[27] = second compound 10 µM, first compound 0.316 µM
[28] = second compound 10 µM, first compound 1 µM
[29] = second compound 10 µM, first compound 3.16 µM
[30] = second compound 10 µM, first compound 10 µM
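Also: spheroids exposed to compounds for seven days.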

SMILES	IC50 (second compound 0.1 µM) [nM]	IC50 (second compound 0.316 µM) [nM]	IC50 (second compound 1 µM) [nM]	IC50 (second compound 3.16 µM) [nM]	IC50 (second compound 10 µM) [nM]	viability, T/C [1] [%]	viability, T/C [2] [%]	viability, T/C [3] [%]	viability, T/C [4] [%]	viability, T/C [5] [%]	viability, T/C [6] [%]	viability, T/C [7] [%]	viability, T/C [8] [%]	viability, T/C [9] [%]	viability, T/C [10] [%]	viability, T/C [11] [%]	viability, T/C [12] [%]	viability, T/C [13] [%]	viability, T/C [14] [%]	viability, T/C [15] [%]	other results
CC[C@@]1(O)C(=O)OCc2c1cc1n(c2=O)Cc2cc3c(CN(C)C)c(O)ccc3nc2-1 + CC(CO)NC(=O)c1cc(-c2ccc(Cl)cc2)nn(-c2cnn(C)c2)c1=O	11.4	11.7	10.7	7.84	8.12	8.77	4.56	7.83	5.61	10	6.33	10.9	4.27	10	7.97	–	–	–	–	–	viability, T/C (second compound 0.1 µM, first compound 0.000316 µM): 104%; viability, T/C (second compound 0.1 µM, first compound 0.001 µM): 107%; viability, T/C (second compound 0.1 µM, first compound 0.00316 µM): 87.9%; viability, T/C (second compound 0.1 µM, first compound 0.01 µM): 58.3%; viability, T/C (second compound 0.316 µM, first compound 0.000316 µM): 92.6%; viability, T/C (second compound 0.316 µM, first compound 0.001 µM): 94.5%; viability, T/C (second compound 0.316 µM, first compound 0.00316 µM): 87.9%; viability, T/C (second compound 0.316 µM, first compound 0.01 µM): 57%; viability, T/C (second compound 1 µM, first compound 0.000316 µM): 110%; viability, T/C (second compound 1 µM, first compound 0.001 µM): 107%; viability, T/C (second compound 1 µM, first compound 0.00316 µM): 92.8%; viability, T/C (second compound 1 µM, first compound 0.01 µM): 54.5%; viability, T/C (second compound 3.16 µM, first compound 0.000316 µM): 117%; viability, T/C (second compound 3.16 µM, first compound 0.001 µM): 106%; viability, T/C (second compound 3.16 µM, first compound 0.00316 µM): 81.4%; viability, T/C (second compound 3.16 µM, first compound 0.01 µM): 43%; viability, T/C (second compound 10 µM, first compound 0.000316 µM): 89.4%; viability, T/C (second compound 10 µM, first compound 0.001 µM): 93%; viability, T/C (second compound 10 µM, first compound 0.00316 µM): 75.1%; viability, T/C (second compound 10 µM, first compound 0.01 µM): 46.2%
Nc1ccccc1NC(=O)c1ccc(CNC(=O)OCc2cccnc2)cc1 + Cc1ccccc1N=Nc1ccc(NC(=O)c2ccnn2C)c(C)c1	763	764	958	713	< 31.6	95.5	89.5	92	77.7	97.7	91.5	75.2	69.7	49.4	45.1	64.3	43.7	28.3	11.1	68.8	viability, T/C [16]: 43.1%; viability, T/C [17]: 26.5%; viability, T/C [18]: 10.7%; viability, T/C [19]: 69.5%; viability, T/C [20]: 48.7%; viability, T/C [21]: 29.2%; viability, T/C [22]: 11.2%; viability, T/C [23]: 62.3%; viability, T/C [24]: 44.3%; viability, T/C [25]: 27.7%; viability, T/C [26]: 12.4%; viability, T/C [27]: 44.5%; viability, T/C [28]: 32.5%; viability, T/C [29]: 23.5%; viability, T/C [30]: 12.8%
O=C(C=Cc1cccc(S(=O)(=O)Nc2ccccc2)c1)NO + Cc1cncc(-c2nc(NCCc3c[nH]c4ccccc34)c3ncn(C(C)C)c3n2)c1	1010	1340	680	153	< 31.6	77.7	93.9	86.3	80.5	96.1	72.5	52.2	62	20.6	20.6	70.5	45	30.8	7.26	74.2	viability, T/C [16]: 50%; viability, T/C [17]: 37.5%; viability, T/C [18]: 7.14%; viability, T/C [19]: 65.2%; viability, T/C [20]: 41.1%; viability, T/C [21]: 31.1%; viability, T/C [22]: 9.39%; viability, T/C [23]: 39.5%; viability, T/C [24]: 31.8%; viability, T/C [25]: 21.8%; viability, T/C [26]: 10.2%; viability, T/C [27]: 19.5%; viability, T/C [28]: 16%; viability, T/C [29]: 12.6%; viability, T/C [30]: 5.42%
